Literature values as cited in patent US4968506A, “Pharmaceutical dosage with core of N-acetyl cystein” (Lejus Medical Aktienbolag, priority 1988, dated 1990).

Test system: mucous membrane in the stomach
Details: N-acetyl cysteine

CC(=O)N[C@@H](CS)C(=O)O [N-Acetyl cysteine, N-acetyl cysteine]
reported side effects: irritating effect on the mucous membrane in the stomach
